“And” between values parts separate entries of the source, which are not always exact repeats. Equal entries are not always repeated. Where two headings read alike, the source gives them in different places.
How the values were obtained:
liver = type: in vivo, Male Sprague-Dawley rats; settings: for Centrilobular collagenous accumulation (Masson's trichrome): 200 mg/kg/day, five-day oral administration;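 on Cytoplasmic Alteration: Severity grades from None 0% through Minimal Mild Moderate to Marked over 80% tissue affected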;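 on Inflammation: Severity grades from None 0% through Minimal Mild Moderate to Marked over 80% tissue affected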;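 on Vacuolation: Severity grades from None 0% through Minimal Mild Moderate to Marked over 80% tissue affected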
[1] = type: in vivo, Male Sprague-Dawley rats
[2] = tested on: 67 genes on the fibrosis gene panel; experiment: Multiplexed fibrosis gene panel (QuantiGene 2.0 Plex / Bioplex) on liver RNA
[3] = Carbon Tetrachloride 200 mg/kg, animal 54
[4] = histopathology score, individual animals, Carbon Tetrachloride 200, Bromobenzene 785, Dexamethasone 1 mg/kg
[5] = liver RNA, individual animals, Carbon Tetrachloride 200, Bromobenzene 785, Dexamethasone 1 mg/kg

Compound: ClC(Cl)(Cl)Cl [carbon tetrachloride]
- Centrilobular collagenous accumulation (Masson's trichrome) (liver): pre-fibrogenic lesions in centrilobular region
- Centrilobular collagenous accumulation (Masson's trichrome) (liver; listed as Carbon tetrachloride): caused prefibrotic centrilobular collagenous accumulation
- Bile Duct Hyperplasia and Fibroplasia (liver; [3]): 0
- Cytoplasmic Alteration (liver; [3]): 0
- Inflammation (liver; [3]): 0
- Necrosis (liver; [3]): 1
- Vacuolation (liver; [3]): 3
- Combined histopathological scores as percent of animals with pathology (liver; across dose groups, five days (figure legend)): dose-dependent increase in severe pathology
- Histopathological evidence of vacuolation and/or glycogen accumulation (liver; exposures on the gene panel (FIG. 9 legend)): correlated with histopathological evidence of vacuolation and/or glyocgen accumulation
- Bile Duct Hyperplasia and Fibroplasia (liver; [4]): 0
- Inflammation (liver; [4]): 0
- Vacuolation (liver; [4]): 4 and 3 (2×)
- Fibrosis histopathology (liver; low-dose (carbon tetrachloride: all doses)): without fibrosis
- Vacuolation (liver; oral gavage five days, across doses): dose-dependent increase in vacuolation indicative of lipid accumulation without evidence of fibrosis
- Body weight change ([1]; all doses): Body weight gain was less than controls at all doses
- Body weight gain over the five experimental dosing days ([1]; dose groups): decrease in body weight gain
- A2m differential expression [2, 3]: −3.423
- Arf6 differential expression [2, 3]: 0.270
- Cxcl1 differential expression [2, 3]: 0.190
- RT1-DMa differential expression [2, 3]: 0.225
- Differential Expression of A2m [2, 5]: −2.891 and −2.439 and −5.167
- Differential Expression of Angptl3 [2, 5]: −0.612 and −1.071 and −0.753 and −0.775
- Differential Expression of Anxa2 [2, 5]: 0.553 and 0.586 and 0.834 and 0.587
- Differential Expression of Apoc [2, 5]: −0.311 and −0.356 and −0.337 and −0.414
- Differential Expression of Arf6 [2, 5]: 0.172 and 0.167 and 0.214
- Differential Expression of Arpc1b [2, 5]: 1.102 and 1.145 and 1.554 and 1.382
- Differential Expression of Arrb1 [2, 5]: 1.846 and 2.288 and 2.226 and 1.692
- Differential Expression of C1qb [2, 5]: 0.268 and 0.290 and 0.085 and 0.332
- Differential Expression of CD9 [2, 5]: −0.279 and −0.103 and 0.754 and −0.347
- Differential Expression of CD53 [2, 5]: 0.486 and 1.094 and 1.315 and 1.262
- Differential Expression of CP [2, 5]: −0.227 and −0.328 and −0.317 and −0.414
- Differential Expression of Capg [2, 5]: 0.433 and 0.855 and 0.909 and 0.968
- Differential Expression of Ccl2 [2, 5]: 1.671 and 1.662 and 2.378 and 1.370
- Differential Expression of Col1a1 [2, 5]: 1.336 and 1.411 and 1.309 and 1.774
- Differential Expression of Col1a2 [2, 5]: 0.249 and 0.458 and 0.329 and 0.672
- Differential Expression of Col4a1 [2, 5]: −0.521 and −0.024 and −0.441 and 0.104
- Differential Expression of Col5a2 [2, 5]: 1.411 and 2.330 and 2.442 and 2.138
- Differential Expression of Ctgf [2, 5]: 2.135 and 2.232 and 2.664 and 1.663
- Differential Expression of Cxcl1 [2, 5]: −0.500 and −0.165 and −0.462
- Differential Expression of Cxcl12 [2, 5]: 0.040 and 0.320 and 0.041 and 0.403
- Differential Expression of Cxcl16 [2, 5]: 1.440 and 1.782 and 1.992 and 1.656
- Differential Expression of Cyba [2, 5]: 0.522 and 0.799 and 0.888 and 0.887
- Differential Expression of Cyp2c11 [2, 5]: −1.357 and −3.301 and −0.339 and −0.904
- Differential Expression of Dsc2 [2, 5]: 0.091 and −0.280 and −0.204 and −0.265
- Differential Expression of Fam102b [2, 5]: −0.378 and −0.140 and −0.011 and −0.240
- Differential Expression of Fam105a [2, 5]: 0.309 and 0.576 and 0.985 and 0.758
- Differential Expression of Fbn1 [2, 5]: −0.149 and 0.230 and −0.294 and 0.107
- Differential Expression of Fn1 [2, 5]: −0.120 and −0.152 and −0.364 and −0.262
- Differential Expression of Fstl1 [2, 5]: −0.259 and 0.017 and −0.180 and 0.025
- Differential Expression of Fxyd5 [2, 5]: 0.160 and 0.404 and 0.507 and 0.213
- Differential Expression of Gpnmb [2, 5]: 1.494 and 2.232 and 3.101 and 2.714
- Differential Expression of Igfals [2, 5]: −0.528 and −0.092 and −0.771 and −0.189
- Differential Expression of Igfbp1 [2, 5]: 0.019 and 0.070 and 0.480 and −0.925
- Differential Expression of Igfbp2 [2, 5]: −0.542 and 1.416 and 0.505 and −1.839
- Differential Expression of Igfbp3 [2, 5]: −0.324 and 0.063 and −0.304 and −0.113
- Differential Expression of Itga1 [2, 5]: 0.220 and 0.585 and 0.503 and 0.756
- Differential Expression of Itgb2 [2, 5]: −0.115 and 0.502 and 0.455 and 0.302
- Differential Expression of Lame2 [2, 5]: 2.323 and 2.130 and 2.338 and 1.341
- Differential Expression of Lbp [2, 5]: 0.594 and 0.379 and 0.665 and 0.050
- Differential Expression of Len2 [2, 5]: −1.654 and 0.356 and 1.528 and 2.126
- Differential Expression of Lgals1 [2, 5]: 0.936 and 0.978 and 1.986 and 1.602
- Differential Expression of Lgals3 [2, 5]: 0.994 and 1.444 and 2.024 and 1.736
- Differential Expression of Lgals3bp [2, 5]: 0.391 and 0.486 and 0.360 and 0.302
- Differential Expression of Lox [2, 5]: −0.215 and −0.493 and 0.022 and 0.077
- Differential Expression of Lrp1 [2, 5]: −0.329 and −0.337 and −0.524 and −0.671
- Differential Expression of Lum [2, 5]: 0.298 and −0.201 and 0.404 and 0.442
- Differential Expression of Mmp2 [2, 5]: −0.062 and 0.311 and 0.610 and −0.241
- Differential Expression of Nid1 [2, 5]: −0.021 and 0.232 and 0.186 and 0.154
- Differential Expression of Pcolce [2, 5]: 0.002 and 0.354 and 0.651 and −0.401
- Differential Expression of Pkm2 [2, 5]: 0.077 and 0.586 and 0.642 and 0.663
- Differential Expression of Plat [2, 5]: −0.025 and −0.411 and −0.289 and −0.385
- Differential Expression of Plau [2, 5]: 0.039 and 0.765 and 0.947 and 0.720
- Differential Expression of Plod2 [2, 5]: −0.129 and −0.357 and −0.045 and −0.258
- Differential Expression of RT1-DMa [2, 5]: 0.711 and 0.673 and 1.089
- Differential Expression of RT1-Da [2, 5]: 0.559 and 0.918 and 1.213 and 1.280
- Differential Expression of S100A6 [2, 5]: −0.079 and −0.686 and 0.408 and −0.019
- Differential Expression of S100A11 [2, 5]: 0.119 and 0.421 and 0.731 and 0.599
- Differential Expression of Serpine1 [2, 5]: 0.309 and −0.345 and 0.467 and −0.524
- Differential Expression of Serping1 [2, 5]: −0.712 and −0.714 and −0.546 and −0.514
- Differential Expression of Slc25a24 [2, 5]: −0.245 and −0.511 and −0.262 and −0.615
- Differential Expression of Sod2 [2, 5]: 0.022 and 0.009 and −0.014 and −0.116
- Differential Expression of TagIn2 [2, 5]: 0.218 and 0.282 and 0.110 and 0.153
- Differential Expression of Tgfb1 [2, 5]: −0.322 and 0.107 and −0.102 and −0.395
- Differential Expression of Timp1 [2, 5]: 0.939 and 1.200 and 1.645 and 1.241
- Differential Expression of Vhl [2, 5]: 2.369 and 2.626 and 2.628 and 2.130
- Differential Expression of Vim [2, 5]: 0.044 and 0.004 and 0.348 and 0.360
- Differential Expression of Vtn [2, 5]: −0.291 and −0.381 and −0.494 and −0.473
- Panel gene expression relative to other chemical-dose groups ([2]; liver, 67-gene panel): mid-way between fibrosis-positive chemical-dose groups and non-fibrogenic chemical-dose groups
- Hierarchical biclustering of log2 fold-changes in panel gene expression ([2]; liver, 67 genes): clustered mid-way between non-fibrogenic and fibrogenic doses of the other fibrogenic chemicals

From patent US11371097B2, “Articles for diagnosis of liver fibrosis” (THE GOVERNMENT OF THE UNITED STATES, as represented by THE …, priority 2015, dated 2022)
